Entries after “also recorded” stand apart in the source; their conditions may differ.
Legend:
[1] = target: T1, glucocorticoid receptor (GR) (Homo sapiens, UniProt P04150); experiment: Glucocorticoid receptor competitor assay (fluorescence polarization, Life Technology); assay type: binding; details: dexamethasone-chloroalkane conjugates (carbamate linker = PBI-4980)
T1 construct: purchased Life Technology
T1 sequence (P04150 1-777): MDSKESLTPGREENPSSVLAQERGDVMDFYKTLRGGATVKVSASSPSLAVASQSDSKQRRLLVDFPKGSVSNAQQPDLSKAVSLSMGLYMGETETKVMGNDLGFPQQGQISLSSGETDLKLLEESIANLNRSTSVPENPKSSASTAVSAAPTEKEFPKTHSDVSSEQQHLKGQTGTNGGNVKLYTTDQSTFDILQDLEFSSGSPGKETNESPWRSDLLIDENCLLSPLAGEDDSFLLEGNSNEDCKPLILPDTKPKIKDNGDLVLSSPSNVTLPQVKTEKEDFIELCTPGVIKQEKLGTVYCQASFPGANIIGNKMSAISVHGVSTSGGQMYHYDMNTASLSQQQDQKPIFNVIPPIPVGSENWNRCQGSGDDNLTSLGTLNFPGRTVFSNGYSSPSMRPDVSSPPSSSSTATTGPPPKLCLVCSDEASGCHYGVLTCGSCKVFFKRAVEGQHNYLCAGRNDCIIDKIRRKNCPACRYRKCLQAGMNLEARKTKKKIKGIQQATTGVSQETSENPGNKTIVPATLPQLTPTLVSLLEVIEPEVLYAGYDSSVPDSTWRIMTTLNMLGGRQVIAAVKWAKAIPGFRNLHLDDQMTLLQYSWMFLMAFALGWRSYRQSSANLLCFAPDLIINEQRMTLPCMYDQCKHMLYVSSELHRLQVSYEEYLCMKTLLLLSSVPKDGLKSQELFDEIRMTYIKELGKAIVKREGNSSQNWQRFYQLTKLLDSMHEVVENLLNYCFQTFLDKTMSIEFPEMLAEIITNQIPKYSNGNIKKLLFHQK
Description: c) Binding efficiency to the target glucocorticoid receptor (GR) was done using the glucocorticoid receptor competitor assay (Life Technology) as recommended by the manufacturer.

HaloTag® protein [2] = experiment: Binding efficiency/kinetics to HaloTag protein in cell lysate (chase with fluorescent HaloTag ligand, SDS-PAGE); details: 1 μM; for binding efficiency / labeling kinetics to HaloTag protein in lysate: methotrexate-chloroalkane conjugates, 0-60 min (O4 = PBI-4849, O6 = PBI-4850)
Method: (§1) a) Binding efficiency to HaloTag® protein in lysate was measured by adding the methotrexate-chloroalkane conjugates to lysate from cells expressing a HaloTag® protein to a final concentration of 1 μM. Following 0-60 mins of binding, the reactions were chased with 1 μM fluorescent HaloTag® ligand. Unbound HaloTag® protein was detected through binding to the fluorescent HaloTag® ligand followed by analysis on SDS-PAGE gel and detection on a fluorescent gel scanner.
as §1, with “adding the dexamethasone-chloroalkane conjugates to” for “adding the methotrexate-chloroalkane conjugates to”, “the fluorescent HaloTag ligand followed” for “the fluorescent HaloTag® ligand followed”
a) Binding kinetics to HaloTag® protein in cell lysate was measured by adding the modified BIRB796-chloroalkane conjugates to lysate from cells expressing a HaloTag® protein at a final concentration of 1 μM. After 0-60 min of binding, the reactions were chased with 1 μM fluorescent HaloTag® ligand (Promega Corporation). Unbound HaloTag® protein was detected through binding to the fluorescent HaloTag® ligand followed by analysis on SDS-PAGE and detection on a fluorescent gel scanner.
Following 0-60 min of binding, the reactions were chased with 1 μM fluorescent HaloTag® ligand. Unbound HaloTag® protein was detected through binding to the fluorescent HaloTag® ligand followed by analysis on SDS-PAGE and detection on a fluorescent gel scanner.
a) Binding kinetics to HaloTag® protein in cell lysate was measured by adding the dasatinib-chloroalkane conjugates to lysate (final concentration of 1 μM) from cells expressing a HaloTag® protein. Following 0-60 min of binding, the reactions were chased with 1 μM fluorescent HaloTag® ligand. Unbound HaloTag® protein was detected through binding to the fluorescent HaloTag® ligand followed by analysis on SDS-PAGE and detection on a fluorescent gel scanner.

HaloTag® protein [3] = experiment: Binding efficiency/kinetics to HaloTag protein in cells (cell permeability; chase with fluorescent HaloTag ligand, SDS-PAGE); assay type: cell-based; details: 10 μM
Method: b) Binding efficiency to HaloTag® protein in cells was measured by adding the methotrexate-chloroalkane conjugates to cells expressing a HaloTag® protein to a final concentration of 10 μM. Following 0-120 mins of binding, the reactions were chased with 5 μM fluorescent HaloTag® ligand. Unbound HaloTag® protein was detected through binding to the fluorescent HaloTag® ligand followed by cell lysis, analysis on a SDS-PAGE gel and detection on a fluorescent gel scanner.
b) Binding efficiency to HaloTag® protein in cells was measured by adding the dexamethasone-chloroalkane conjugates to cells expressing a HaloTag® protein to a final concentration of 10 μM. Following 0-60 mins of binding, the reaction was chased with 5 μM fluorescent HaloTag ligand. Unbound HaloTag® protein was detected through binding to the fluorescent HaloTag® ligand followed by cell lysis, analysis on SDS-PAGE gel and detection on a fluorescent gel scanner.
b) Binding kinetics to HaloTag® protein in cells was measured by adding the modified BIRB796-chloroalkane conjugates to cells expressing a HaloTag® protein at a final concentration of 10 μM. Following 0-60 min of binding, the reactions were chased with 5 μM fluorescent HaloTag® ligand. Unbound HaloTag® protein was detected through binding to the fluorescent HaloTag® ligand followed by cell lysis, analysis on SDS-PAGE and detection on a fluorescent gel scanner.
Following 0-180 min of binding, the reactions were chased with 5 μM fluorescent HaloTag® ligand. Unbound HaloTag® protein was detected through binding to the fluorescent HaloTag® ligand followed by cell lysis, analysis on SDS-PAGE and detection on a fluorescent gel scanner.
b) Binding kinetics to HaloTag® protein in cells was measured by adding the dasatinib-chloroalkane conjugates (final concentration of 10 μM) to cells expressing a HaloTag protein which localized to the cytoplasm or the nucleus. Following 0-90 min of binding, the reactions were chased with 5 μM fluorescent HaloTag® ligand. Unbound HaloTag® protein was detected through binding to the fluorescent HaloTag® ligand followed by cell lysis, analysis on SDS-PAGE and detection on a fluorescent gel scanner.

NanoLuc:GR fusion = target: T2, NanoLuc:GR fusion (Homo sapiens, UniProt P04150); experiment: Pull-down of NanoLuc:GR fusion from live HEK293 cells onto HaloTag protein beads; assay type: cell-based; details: HEK293, 10 μM conjugate, 2 h; beads 45 min; release with 150 μM dexamethasone; PBI-4980 compared with PBI-4025
T2 construct: expressed in transfected cells; host or cells: HEK293
T2 sequence (P04150 1-777): T1 sequence (P04150 1-777)
Method: HEK293 cells were plated and transfected using PEI with plasmid DNA encoding NanoLuc:GR fusion in wells of a 96-well plate. The DNA was diluted 1:50 with a promoterless carrier DNA plasmid (pCI neo) to a final concentration of 80 ng total DNA per well. Twenty-four hours post-transfection, cells were serum starved for additional 24 hours then incubated with a final concentration of 10 μM PBI-4980 or PBI-4025 while control cells were not treated with the conjugated drug. Following equilibration binding of 2 h, the media was removed, cells quickly washed with PBS and lysed in detergent-based lysis buffer for 10 min. Cell lysates were than transferred to wells of a 96-well plate containing 0.5 μl settled paramagnetic HaloTag® protein beads and incubated with shaking for 45 min. Following binding the unbound fraction was removed, the HaloTag® protein paramagnetic beads were washed 3×, and the captured NanoLuc fusion was specifically released from the beads by competition with 150 μM unconjugated Dexamethasone for 60 min. The released NanoLuc:GR (+PBI-4980 or +PBI-4025) and control samples were detected by using the NanoGlo® assay reagent (Promega Corp).

[4] = target: T3, NanoLuc-DHFR fusion protein (Homo sapiens, UniProt P00374); experiment: Pull-down of NanoLuc-DHFR fusion from living HEK293 cells onto HaloTag protein beads; assay type: cell-based; details: HEK293, 10 uM conjugate, 2 h; beads 45 min; release with 150 μM methotrexate
T3 construct: expressed in transfected cells; host or cells: HEK293
T3 sequence (P00374 1-187): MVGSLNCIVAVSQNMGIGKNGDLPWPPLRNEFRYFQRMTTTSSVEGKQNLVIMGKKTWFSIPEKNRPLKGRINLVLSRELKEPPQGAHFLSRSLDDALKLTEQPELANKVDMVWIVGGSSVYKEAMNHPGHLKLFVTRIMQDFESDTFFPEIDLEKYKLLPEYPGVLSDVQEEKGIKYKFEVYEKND
Method: HEK293 cells were plated and transfected using PEI with plasmid DNA encoding a NANOLUC-DHFR fusion in wells of a 96-well plate. The DNA was diluted 1:50 with a promoterless carrier DNA plasmid (pCI) to a final concentration of 80 ng total DNA per well. Twenty-four hours post-transfection, cells were serum starved for additional 24 hours and then treated with […] 10 uM PBI-4848 or PBI-5015 while control cells were not treated with the conjugated drug. Following equilibration binding of 2 h, the media was removed, and the cells quickly washed with PBS and lysed in detergent-based lysis buffer for 10 min. Cell lysates were then transferred to wells of a 96-well plate containing 0.5 μl settled paramagnetic HALOTAG protein beads and incubated with shaking for 45 min. Following binding, the unbound fraction was removed, the HALOTAG protein paramagnetic beads washed, 150 μM unconjugated methotrexate added, and the captured NANOLUC:DHFR specifically released from the beads by competition with the unconjugated methotrexate for 60 min. The released NANOLUC:DHFR (+PBI-5015 or +PBI-4848) and control samples were detected by NANOGLO luciferase detection reagent.

[5] = target: T4, ABL-NanoLuc® fusion protein (Homo sapiens, UniProt P00519); experiment: Pull-down of ABL-NanoLuc fusion from live HEK293 cells onto HaloTag protein beads; assay type: cell-based; details: HEK293, 20 μM conjugate, 2 h; beads 15 min; release with 400 μM dasatinib
T4 construct: expressed in transfected cells; host or cells: HEK293
T4 sequence (P00519 whole entry, the tested form may be a part): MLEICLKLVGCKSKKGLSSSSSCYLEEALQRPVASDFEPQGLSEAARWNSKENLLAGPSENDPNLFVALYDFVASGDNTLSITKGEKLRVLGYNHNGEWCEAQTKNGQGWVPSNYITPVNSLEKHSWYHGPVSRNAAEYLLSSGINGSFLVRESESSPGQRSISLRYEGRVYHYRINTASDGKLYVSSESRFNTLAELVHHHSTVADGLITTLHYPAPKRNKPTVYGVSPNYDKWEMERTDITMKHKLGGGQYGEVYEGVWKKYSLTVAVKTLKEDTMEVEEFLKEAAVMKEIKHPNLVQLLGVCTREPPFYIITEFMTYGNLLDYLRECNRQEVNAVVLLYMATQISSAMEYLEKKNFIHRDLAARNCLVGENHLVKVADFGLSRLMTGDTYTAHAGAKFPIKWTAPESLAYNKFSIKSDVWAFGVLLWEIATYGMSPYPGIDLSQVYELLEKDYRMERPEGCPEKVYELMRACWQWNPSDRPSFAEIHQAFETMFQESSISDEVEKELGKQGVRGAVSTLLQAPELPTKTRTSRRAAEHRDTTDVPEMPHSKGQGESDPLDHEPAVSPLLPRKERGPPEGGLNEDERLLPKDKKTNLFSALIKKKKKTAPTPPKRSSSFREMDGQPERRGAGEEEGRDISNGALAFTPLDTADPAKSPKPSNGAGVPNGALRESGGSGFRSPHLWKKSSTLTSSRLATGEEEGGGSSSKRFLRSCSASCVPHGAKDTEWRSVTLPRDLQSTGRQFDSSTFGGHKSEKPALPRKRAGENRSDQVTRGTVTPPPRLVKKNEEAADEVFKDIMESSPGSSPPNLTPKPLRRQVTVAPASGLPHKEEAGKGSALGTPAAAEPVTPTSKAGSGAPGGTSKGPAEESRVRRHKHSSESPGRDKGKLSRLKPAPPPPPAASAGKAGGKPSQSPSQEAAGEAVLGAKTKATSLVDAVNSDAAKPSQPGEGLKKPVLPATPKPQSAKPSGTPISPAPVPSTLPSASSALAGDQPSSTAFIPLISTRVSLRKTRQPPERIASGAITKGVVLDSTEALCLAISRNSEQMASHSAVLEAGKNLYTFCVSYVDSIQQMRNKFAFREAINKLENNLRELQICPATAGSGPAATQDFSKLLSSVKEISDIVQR
Method: c) The 2 carbamate linkers were also compared for their ability to specifically pull down a ABL-NanoLuc® fusion protein from live cells. HEK293 cells were transfected using PEI with plasmid DNA encoding ABL-NanoLuc® fusion (transfection was done in a 96-well format). The DNA was diluted 1:100 with a promoterless carrier DNA plasmid (pCI-neo; Promega Corporation) to a final concentration of 80 ng total DNA per well. Twenty-four hours post-transfection, cells were incubated with a final concentration of 20 μM PBI-5270 or PBI-5590 while control cells were not treated with the conjugated drug. Following equilibration binding of 2 h, the media was removed; cells were quickly washed with PBS; and cells lysed in detergent-based lysis buffer for 10 min. Cell lysates were then transferred to a 96-well plate containing 0.5 μl settled paramagnetic HaloTag® protein beads and incubated with shaking for 15 min. Following binding, the unbound fraction was removed, the HaloTag® protein paramagnetic beads were washed 3×, and the captured ABL-NanoLuc® fusion was specifically released from the beads by competition with 400 μM unconjugated dasatinib for 15 min. The released ABL-NanoLuc® fusion in the experiment (+PBI-5270 or +PBI-5590) and control samples was detected by NanoGlo® reagent.

[6] = methotrexate-chloroalkane conjugates, 0-120 min (O4 = PBI-4849, O6 = PBI-4850)

C[C@@H]1CC2[C@@H]3CCC4=CC(=O)C=C[C@]4(C)[C@@]3(F)[C@@H](O)C[C@]2(C)[C@@]1(O)C(=O)NCCOCCOCCOCCOCCC(=O)NCCOCCOCCCCCCCl (some centres unmarked) [PBI-4025]
affinity / binding efficiency to glucocorticoid receptor [1]: highest affinity; also recorded: best binding efficiency; also recorded: higher affinity

CC(C)(C)c1cc(NC(=O)Nc2ccccc2)n(-c2cccc(CNC(=O)CNC(=O)CCC(=O)NCCOCCOCCCCCCCl)c2)n1 [PBI-4832, BIRB* O2 Chloroalkane]
binding kinetics to HaloTag protein in cell lysate (HaloTag® protein [2]; modified BIRB796-chloroalkane conjugates, 0-60 min): fast binding kinetics

CN(Cc1cnc2nc(N)nc(N)c2n1)c1ccc(C(=O)NC(CCC(=O)NCCOCCOCCCCCCCl)C(=O)O)cc1 (centres unmarked) [PBI-4848, Methotrexate-O2 Chloroalkane]
binding efficiency / labeling kinetics to HaloTag protein in lysate (HaloTag® protein [2]): fast labeling kinetics | cell permeability/binding efficiency to HaloTag protein in cells (HaloTag® protein [3]; [6]): best cell permeability and binding efficiency; also recorded: higher cell permeability

C[C@@H]1CC2[C@@H]3CCC4=CC(=O)C=C[C@]4(C)[C@@]3(F)[C@@H](O)C[C@]2(C)[C@@]1(O)C(=O)NCCCCCNC(=O)OCCOCCOCCOC(=O)NCCOCCOCCCCCCCl (some centres unmarked) [PBI-4980, Dexamethasone Carbamate Chloroalkane]
affinity / binding efficiency to glucocorticoid receptor [1]: best binding efficiency | affinity / binding efficiency to glucocorticoid receptor ([1]; listed as carbamate linker): highest affinity | binding kinetics to HaloTag protein in lysate (HaloTag® protein [2]; dexamethasone-chloroalkane conjugates, 0-60 min): faster binding kinetics | cell permeability/binding efficiency to HaloTag protein in cells (HaloTag® protein [3]; dexamethasone-chloroalkane conjugates, 0-60 min (O4 = PBI-4026, O6 = PBI-4025)): best cell permeability/binding efficiency | efficiency of Nluc:GR fusion pull down (NanoLuc:GR fusion): significantly higher

CN(Cc1cnc2nc(N)nc(N)c2n1)c1ccc(C(=O)NC(CCC(=O)NCCCCCNC(=O)OCCOCCOCCOC(=O)NCCOCCOCCCCCCCl)C(=O)O)cc1 (centres unmarked) [PBI-5015, Methotrexate Carbamate Chloroalkane]
pull-down of Nluc:DHFR fusion from living cells [4]: efficiently pulled down | binding efficiency / labeling kinetics to HaloTag protein in lysate (HaloTag® protein [2]): fast labeling kinetics | cell permeability/binding efficiency to HaloTag protein in cells (HaloTag® protein [3]; [6]): good cell permeability and binding efficiency; also recorded: best cell permeability and binding efficiency

Cc1nc(Nc2ncc(C(=O)Nc3c(C)cccc3Cl)s2)cc(N2CCN(CCOC(=O)NCCCCCNC(=O)OCCOCCOCCOC(=O)NCCOCCOCCCCCCCl)CC2)n1 [PBI-5270, Dasatinib Bis-Carbamate]
pull-down of ABL:NanoLuc fusion from live cells [5]: pulled down efficiently

Cc1nc(Nc2ncc(C(=O)Nc3c(C)cccc3Cl)s2)cc(N2CCN(CCOC(=O)NCCOCCOCCCCCCCl)CC2)n1 [PBI-5590, Dasatinib Monocarbamate]
binding kinetics to HaloTag protein in cell lysate (HaloTag® protein [2]; dasatinib-chloroalkane conjugates, 0-60 min, compared with PBI-5270): faster binding kinetics
